Laboratory results taken from patent US10717704B2, “Inhibitors of creatine transport and uses thereof” (Rgenix, Inc., priority 2014, dated 2020).
Each block holds one compound with its values, some of them ahead of it.

Experiments:
[1] = system: LvM3b cells with CKB knockdown; assay: Liver metastasis of CKB knockdown LvM3b cells pre-treated with metabolite; type: in vivo, mice
Protocol: (§1) 5×10^5 highly metastatic cancer cells were injected into the portal circulation of immunodeficient mice. One day after inoculation of cancer cells, mice were injected indicated amounts of drug in 300 μL PBS. Treatment was continued daily and metastatic progression was monitored by bioluminescent imaging until the mice were euthanized at which point livers were excised for bioluminescent imaging and gross histology. Where indicated, cancer cells were pre-treated with indicated amounts of compound for 48 hrs before injection into immunodeficient mice.
CKB is known to regulate the reservoir of rapidly mobilized high-energy phosphates in tissues such as the brain and kidneys by catalyzing the transfer of a high-energy phosphate group from phosphocreatine to ADP, yielding ATP and creatine. It was hypothesized that CKB generation of ATP from phosphocreatine might provide colon cancer cells with an energetic advantage during hepatic colonization. […] Metastatic burden was monitored by bioluminescent imaging and mice euthanized 21 days after injection.
Similar studies were done to determine whether creatine and phosphocreatine could rescue the phenotype of seen upon CKB knock-down. […] Liver metastasis was monitored by bioluminescent imaging and mice were euthanized as described above.

creatine transporter = molecular target: T1, creatine transporter (Mus musculus, UniProt Q8VBW1); assay: In vivo creatine transporter inhibition assay (creatine-d3 transport in heart tissue); parameters: species or system C57Bl6 male mice; settings: i.p. 250 mg/kg β-GPA equivalent (1.91 mmol/kg), creatine-d3 1 mg/kg i.p. 7 minutes after drug, hearts after one hour, relative to vehicle control, mean of three hearts
T1 construct: from tissue; host or cells: heart of C57Bl6 male mice (in vivo dosing)
T1 sequence (Q8VBW1 1-635): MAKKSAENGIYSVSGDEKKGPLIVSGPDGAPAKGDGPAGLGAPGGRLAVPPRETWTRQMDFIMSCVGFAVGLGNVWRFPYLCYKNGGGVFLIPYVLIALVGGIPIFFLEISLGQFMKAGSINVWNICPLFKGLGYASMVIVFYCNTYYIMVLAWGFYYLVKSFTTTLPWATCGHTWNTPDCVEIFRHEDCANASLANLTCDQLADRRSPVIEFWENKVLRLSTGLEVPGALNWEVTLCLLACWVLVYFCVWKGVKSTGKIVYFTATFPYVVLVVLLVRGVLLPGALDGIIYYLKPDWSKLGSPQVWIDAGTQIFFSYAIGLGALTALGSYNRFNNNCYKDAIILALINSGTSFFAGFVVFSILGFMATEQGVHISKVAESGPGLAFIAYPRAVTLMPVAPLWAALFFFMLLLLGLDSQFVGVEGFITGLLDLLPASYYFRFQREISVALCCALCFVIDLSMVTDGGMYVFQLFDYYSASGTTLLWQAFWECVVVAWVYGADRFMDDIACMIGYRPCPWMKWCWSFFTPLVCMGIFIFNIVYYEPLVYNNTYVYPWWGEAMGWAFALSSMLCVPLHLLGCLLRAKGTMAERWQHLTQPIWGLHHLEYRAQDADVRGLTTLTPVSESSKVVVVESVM
Protocol: Soluble compounds were formulated in saline solution (0.9% NaCl). […] Studies were performed on 6-7 week old C57Bl6 male mice, receiving a regular diet (Purina 5001, Research Diet) and on a regular sleep rhythm (12 h night/day schedule). Experiments were performed ˜6 h after exposing to daylight. Mice were weighed and randomly divided into groups of 3 mice per group and injected i.p. with 100-200 μL of dosing solution to deliver 250 mg/kg (50 mg/mL or 381 mM) β-GPA equivalent (i.e. 1.91 mmol/kg) along with a vehicle control. […] Volumes were adjusted based on the weight of the mice to reach a final dose of 1 mg/kg. After one hour, mice were euthanized, hearts were perfused with PBS, removed, snap-frozen in liquid nitrogen, and stored at −80° C. until further processing. Mouse hearts were thawed and weighed into 1.5 mL Eppendorf conical tubes. Typical heart weights range from […]. […] The samples were then placed in a MiniBeadBeater (BioSpec Products, Inc.) for 2 minutes to disrupt the tissue and homogenize the sample. Aliqouts (20 μL) of the homogenized hearts were transferred to a 96-well microtiter plate. […] Supernatant (900 μL) was transferred to 96-well deep well plate for analysis. Calibration standards, blanks, and quality control samples are prepared from control mouse hearts homogenized as noted above. Aliquots of homogenate were then spiked with known quantities of creatine-d3 (CDN Isotopes, Pointe-Claire, Quebec) or solvent, and processed along with the samples as noted above. Analysis was conducted by LC-MS/MS using an Acquity UPLC (Waters Corp., Milford, Mass.)/Triple Quad 5500 (AB Sciex, Framingham, Mass.) system. […] A binary gradient of acetonitrile and 10 mM ammonium acetate was used to elute analytes from the column. The mass spectrometer was operated in positive ion electrospray in Multiple Reaction Monitoring mode for the following mass transitions: Data were collected and processed using Analyst 1.6.2 (AB Sciex, Framingham, Mass.). […] Data was report as μg of creatine-d3 per gram of heart. Mean values and standard deviations were calculated from three heart samples and percent creatine-d3 transport inhibition was reported relative to vehicle control.

LvM3b cells = assay: Liver metastasis assay, LvM3b colon cancer cells, drug treatment of mice; type: in vivo, NOD-SCID mice; settings: for metastatic colonization (bioluminescent measurements of liver metastasis): 5×10^5 LvM3b cells, treated daily for two weeks, intra-peritoneal
Protocol: One day after inoculation of cancer cells, mice were injected indicated amounts of drug in 300 μL PBS. Treatment was continued daily and metastatic progression was monitored by bioluminescent imaging until the mice were euthanized at which point livers were excised for bioluminescent imaging and gross histology. Where indicated, cancer cells were pre-treated with indicated amounts of compound for 48 hrs before injection into immunodeficient mice. […] The treatment regime started one day after inoculation of tumor cells and continued until the mice were euthanized. […] Treatment regime were as that for cyclocreatine treatment. Finally, assays were carried out to determine the impact of small-molecule inhibition of CKB and restriction of creatine availability on colon cancer metastasis. Cyclocreatine, which resembles phosphocreatine, is a transition-state analog for creatine kinases. […] The mice were then euthanized and livers excised for ex vivo imaging at the end of the treatment. […] Similar assays were carried out using a creatine transporter inhibitor beta-guanidinopropionic acid (β-GPA). […] In this example, assays were carried out to confirm the therapeutic potential of targeting the creatine transporter channel SLC6a8 by administering the small molecule β-GPA, which is an inhibitor of SLC6a8. […] To confirm this therapeutic effect, mice injected with LvM3b colon cancer cells we treated with either β-GPA or control vehicle (PBS) via intra-peritoneal injection daily for three weeks (FIG. 2). The mice were euthanized at three weeks and liver extracted for bioluminescent imaging and gross histology.

CKB = CKB (Homo sapiens, UniProt P12277); settings: read-out: ki (inhibitor of CKB); cited from earlier work
[2] = system: PANC1 pancreatic cancer cells; assay: Survival of disseminated PANC1 cells in vivo after β-GPA pre-treatment; parameters: species or system immunodeficient mice
Protocol: as §1, with “One” for “5×10^5 highly metastatic cancer cells were injected into the portal circulation of immunodeficient mice. One”

Chain of CKB (P12277 whole entry): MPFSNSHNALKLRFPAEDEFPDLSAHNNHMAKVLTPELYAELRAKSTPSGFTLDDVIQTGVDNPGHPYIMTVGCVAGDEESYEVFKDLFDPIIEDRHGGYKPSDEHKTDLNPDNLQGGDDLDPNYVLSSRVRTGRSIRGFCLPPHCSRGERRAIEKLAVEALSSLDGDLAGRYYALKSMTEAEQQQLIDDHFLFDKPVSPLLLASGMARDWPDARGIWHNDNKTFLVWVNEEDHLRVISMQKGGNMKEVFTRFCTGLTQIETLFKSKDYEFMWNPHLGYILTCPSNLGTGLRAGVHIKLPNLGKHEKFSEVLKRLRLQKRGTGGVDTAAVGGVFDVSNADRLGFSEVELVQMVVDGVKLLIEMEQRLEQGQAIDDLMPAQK

% Inhibition of Creatine-d3 Transport (creatine transporter): 71.8%
SMILES: N=C(N)N1CC(C(=O)O)C1 [Compound 258, 1-carbamimidoylazetidine-3-carboxylic acid]

% Inhibition of Creatine-d3 Transport (creatine transporter): 11.1%
SMILES: CCC(CC(=O)O)NC(=N)N (centres unmarked) [Compound 358, 3-carbamimidamidopentanoic acid]

% Inhibition of Creatine-d3 Transport (creatine transporter): 24.7%
SMILES: N=C(N)NC(CC(=O)O)C(F)(F)F (centres unmarked) [Compound 261, 3-guanidino-4,4,4-trifluorobutanoic acid]

% Inhibition of Creatine-d3 Transport (creatine transporter): 1.4%
SMILES: C[C@@H](CC(=O)O)NC(=N)N [Compound 220, (3S)-3-carbamimidamidobutanoic acid]

% Inhibition of Creatine-d3 Transport (creatine transporter): 79.0%
SMILES: C[C@H](CC(=O)O)NC(=N)N [Compound 219, (3R)-3-carbamimidamidobutanoic acid]

% Inhibition of Creatine-d3 Transport (creatine transporter): 39.1%
SMILES: N=C(N)N1CCC(C(=O)O)C1 (centres unmarked) [Compound 376, 1-carbamimidoylpyrrolidine-3-carboxylic acid]

Continued, compound first:

SMILES: Nc1ncnc2c1ncn2[C@@H]1O[C@H](COP(=O)(O)OP(=O)(O)OP(=O)(O)O)[C@@H](O)[C@H]1O [ATP]
enhancement of suppressed metastasis phenotype in cells depleted of CKB ([1]; LvM3b with CKB knockdown pre-treated with 100 uM ATP, 21 days): more than 10 folds

SMILES: NC1=NCCN1CC(=O)O [cyclocreatine]
metastatic colonization (bioluminescent measurements of liver metastasis) (LvM3b cells): significantly reduced metastatic colonization | Ki (CKB): 5 mM

SMILES: N=C(N)NCCC(=O)O [28 (β-GPA)]
inhibition at 250 mg/kg (creatine transporter; mouse, ip): 73.4%

SMILES: N=C(N)NCCC(=O)O [β-GPA, beta-guanidinopropionic acid]
metastatic colonization (bioluminescent measurements of liver metastasis) (LvM3b cells): significantly reduced metastatic colonization | colon cancer metastasis to the liver (LvM3b cells; LvM3b cells, daily treatment for three weeks, bioluminescent imaging and gross anatomical examination): significant reduction in colon cancer metastasis to the liver | average photon flux ratio (bioluminescence imaging) (LvM3b cells; LvM3b cells, β-GPA intra-peritoneal daily for three weeks, control group about 800): ~100 | average photon flux ratio (bioluminescence imaging) ([2]; 5×10^5 PANC1 cells pre-treated 48 hours with 10 mM, day 1 signal normalized to day zero, control group about 2.7): ~1.6 | tumor burden of pancreatic cancer cells in vivo ([2]; PANC1 cells pre-treated 48 hours with 10 mM, one day after injection): significant reduction in the tumor burden

SMILES: CN(CC(=O)O)C(=N)N [creatine]
rescue of metastasis suppression upon CKB knockdown ([1]; LvM3b cells with CKB knockdown pre-treated with 10 uM, day 21): rescued metastasis suppression

SMILES: N=C(N)NC[C@H](N)C(=O)O [Compound 125, (2S)-2-amino-3-carbamimidamidopropanoic acid]
% Inhibition of Creatine-d3 Transport (creatine transporter): 4.5%
